Assay results reported in US5486597A, “Tetrapeptide derivatives and analogues” (James Black Foundation Limited, priority 1990, dated 1996).
Non-standard residues stand in square brackets, D forms with d. Residues, ends and D or L forms follow the SMILES beside them. *: point of attachment. 1Nal = N[C@@H](Cc1cccc2ccccc12)C(=O)O; 2Nal = N[C@@H](Cc1ccc2ccccc2c1)C(=O)O; d1Nal = N[C@H](Cc1cccc2ccccc12)C(=O)O; d2Nal = N[C@H](Cc1ccc2ccccc2c1)C(=O)O; Phe(ol) = N[C@H](CO)Cc1ccccc1; Boc = CC(C)(C)OC(=O)*; For = O=C*

Experiments:
Assay type in all cases: cell-based
gastrin receptor [1] = molecular target: T1, gastrin receptor (Cavia porcellus, UniProt H0VZC5); experiment: guinea-pig fundus assay for gastrin activity (stomach muscle strips); details: 10^-8 M devazepide present, 60 minute equilibration, agonist e.g. pentagastrin, standard errors less than 5%
T1 construct: Strips of muscle (approximately 2.5 cm by 1 cm) are removed from the proximal area of the stomach; from tissue; host or cells: guinea-pig proximal stomach (fundus) muscle strips
T1 sequence (H0VZC5 1-426): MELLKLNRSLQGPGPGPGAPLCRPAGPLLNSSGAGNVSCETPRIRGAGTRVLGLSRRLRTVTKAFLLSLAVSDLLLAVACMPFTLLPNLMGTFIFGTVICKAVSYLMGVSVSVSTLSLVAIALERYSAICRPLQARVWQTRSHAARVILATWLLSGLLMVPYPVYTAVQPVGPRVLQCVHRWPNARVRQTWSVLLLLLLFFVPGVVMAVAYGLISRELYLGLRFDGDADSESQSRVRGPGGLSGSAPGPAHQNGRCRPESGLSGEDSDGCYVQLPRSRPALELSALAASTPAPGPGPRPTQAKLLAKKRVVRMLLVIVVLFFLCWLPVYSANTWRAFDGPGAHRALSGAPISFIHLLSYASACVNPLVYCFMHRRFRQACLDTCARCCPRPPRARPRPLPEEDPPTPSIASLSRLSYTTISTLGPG
Protocol: The compounds were assayed for gastrin activity using the mouse stomach assay as described by Black, J. W. and Shankley, N. P., Br. J. Pharmacol., 86, 571-579, (1985), and also in the guinea-pig fundus assay, as follows:
The stomach is removed from a male Dunkin-Hartley guinea-pig (250-500 g), and Krebs solution is injected through a hypodermic needle under the top stomach muscle layer. The composition (mM) of the Krebs solution is as follows: Na^+ 143, K^+ 5.9, Ca^2+ 2.5, Mg^2+ 1.2, Cl^- 128, H2 PO4^- 2.2, HCO3^- 24.9, SO4^2- 1.2, dextrose 10. Strips of muscle (approximately 2.5 cm by 1 cm) are removed from the proximal area of the stomach (one from each side) and tied with cotton thread to isotonic transducers under an initial loading tension of 0.35 g.
The preparation is immersed in 20 mls of Krebs solution containing 10^-8 M devazepide (25 μl 2×10^-3 M devazepide/100% DMF solution in 5 dm^3 Krebs) and gassed with 95% O2 /5% CO2. The function of the devazepide is to block possible effects at CCK receptors present in the tissue.
The preparation is washed twice over a 60 minute period then 10 mM KCl is added. At 90 minutes, test compounds (ie. potential antagonists) are added and a further 60 minute equilibration period allowed. After this time, cumulative agonist (e.g. pentagastrin) dose-response curves are constructed.

[2] = molecular target: T2, cholecystokinin receptors (Cavia porcellus, UniProt Q63931); experiment: CCK-antagonist activity in isolated guinea-pig gall-bladder strip preparations; details: guinea-pig gall-bladder strips; CCK-8 as agonist; test compound incubated for 60 minutes; standard errors less than 5%
T2 construct: Isolated, strip preparations were prepared from gall-bladders removed from male Dunkin-Hartley guinea-pigs; from tissue; host or cells: guinea-pig gall-bladder strips
T2 sequence (Q63931 1-430): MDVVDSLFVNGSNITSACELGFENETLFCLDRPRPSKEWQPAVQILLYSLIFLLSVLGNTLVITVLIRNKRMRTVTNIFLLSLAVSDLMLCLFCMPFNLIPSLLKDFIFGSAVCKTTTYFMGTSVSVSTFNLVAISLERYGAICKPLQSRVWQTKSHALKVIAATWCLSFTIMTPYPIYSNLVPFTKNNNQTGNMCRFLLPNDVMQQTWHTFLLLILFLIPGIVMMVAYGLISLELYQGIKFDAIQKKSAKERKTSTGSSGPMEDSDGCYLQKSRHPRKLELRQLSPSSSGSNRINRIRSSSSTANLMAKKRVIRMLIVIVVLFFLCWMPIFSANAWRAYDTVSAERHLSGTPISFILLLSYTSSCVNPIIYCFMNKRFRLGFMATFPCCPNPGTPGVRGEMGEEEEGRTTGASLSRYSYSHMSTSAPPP
Protocol: The compounds of the invention were also assayed for CCK-antagonist activity as follows:
Isolated, strip preparations were prepared from gall-bladders removed from male Dunkin-Hartley guinea-pigs (250-500 g body weight) according to the method of La Morte, W. W., et al., J.P.E.T., 217, (3), 638-644 (1981).
The complete gall-bladder is removed and opened along the longitudinal axis. Strips measuring 3 mm in the longitudinal axis and 1 mm in the transverse axis are cut and then tied with cotton to stainless steel wires. The preparation is connected to a GRASS FTO3 isometric transducer under an initial loading tension of 1 g and is immersed in 20 mls of Krebs solution maintained at 37° C. and gassed with 95% O2 /5% CO2. The Krebs solution is as detailed above in connection with the fundus assay, except that the Ca^2+ concentration is decreased to 0.5 mM. After 30 mins the preparation is washed. Drug addition begins after an initial 90 min stabilisation period. Responses are measured as changes in tension from that immediately prior to any drug addition. Single cumulative agonist concentration-effect curves, using CCK-8 as agonist, are obtained on each preparation in the absence and presence of test compound which has been incubated for 60 minutes. The antagonist activity of the test compound is estimated and expressed as the negative logarithm (base 10) of the equilibrium dissociation constants (pK8) using the modifications of standard competitive analysis described by Black et al., Br. J. Pharmacol.,86,571-579, (1985) and Shankley et al., Br. J. Pharmacol.,94,264-274 (1988).

gastrin receptor [3] = molecular target: T3, gastrin receptor (Mus musculus, UniProt P56481); experiment: mouse stomach assay for gastrin activity (isolated stomach, acid secretion); details: for Acid seretion at 10^-5 M test compound, relative to pentagastrin (%): mouse stomach, NS = not significant
T3 construct: assayed for gastrin activity using the mouse stomach assay; from tissue; host or cells: isolated mouse stomach
T3 sequence (P56481 1-453): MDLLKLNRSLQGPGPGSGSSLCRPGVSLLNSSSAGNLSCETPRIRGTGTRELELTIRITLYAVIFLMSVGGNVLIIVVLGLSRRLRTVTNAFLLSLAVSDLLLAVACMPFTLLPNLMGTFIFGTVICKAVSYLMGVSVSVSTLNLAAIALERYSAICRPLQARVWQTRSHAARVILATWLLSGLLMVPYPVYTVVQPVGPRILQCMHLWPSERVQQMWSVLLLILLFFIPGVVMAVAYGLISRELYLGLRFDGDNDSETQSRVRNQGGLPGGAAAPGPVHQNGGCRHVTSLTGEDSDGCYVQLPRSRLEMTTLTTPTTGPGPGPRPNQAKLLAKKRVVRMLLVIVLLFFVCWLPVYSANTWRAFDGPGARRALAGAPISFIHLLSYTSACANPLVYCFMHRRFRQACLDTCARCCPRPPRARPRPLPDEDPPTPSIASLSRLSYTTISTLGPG
Protocol: The compounds were assayed for gastrin activity using the mouse stomach assay as described by Black, J. W. and Shankley, N. P., Br. J. Pharmacol., 86, 571-579, (1985), and also in the guinea-pig fundus assay, as follows: […]

[4] = isolated mouse stomach assay, gastrin antagonism, standard errors less than 5%

| pKB (gastrin receptor [1]) | pKB [2] | Compound | further results |
| --- | --- | --- | --- |
| 6.1 | 6.6 | CC(C)(C)OC(=O)N[C@@H](Cc1c[nH]c2ccccc12)C(=O)N[C@@H](Cc1ccc2ccccc2c1)C(=O)N[C@@H](CC(=O)O)C(=O)N[C@@H]1CCC[C@H]1c1ccccc1 (single isomer, unassigned; diastereomer 2) [Example 32, N-t-Butyloxycarbonyl-L-tryptophyl-L-3-(2-naphthyl)alanyl-L-aspartyl-trans-2-phenylcyclopentylamide (diastereomer 2)] |  |
| 5.7 | 6.6 | COc1cc2c(cc1OC)CN(C(=O)C(CC(=O)O)NC(=O)C(Cc1ccc3ccccc3c1)NC(=O)C(Cc1c[nH]c3ccccc13)NC(=O)OC(C)(C)C)CC2 [Example 48, N-t-Butyloxycarbonyl-L-tryptophyl-L-3-(2-naphthyl)alanyl-L-aspartyl-2-N-(6,7-dimethoxy-1,2,3,4-tetrahydro)isoquinolinamide] |  |
| 6.0 | 6.2 | CC(C)(C)OC(=O)N[C@@H](Cc1c[nH]c2ccccc12)C(=O)N[C@@H](Cc1ccc2ccccc2c1)C(=O)N[C@@H](CC(=O)O)C(=O)NCCc1ccncc1 [Example 44, N-t-Butyloxycarbonyl-L-tryptophyl-L-3-(2-naphthyl)alanyl-L-aspartyl-2-(4-pyridyl)ethylamide] |  |
|  |  | CC(C)(C)OC(=O)N[C@@H](Cc1c[nH]c2ccccc12)C(=O)N[C@@H](Cc1ccc2ccccc2c1)C(=O)N[C@H](CC(=O)O)C(=O)N[C@@H](Cc1ccccc1)C(N)=O [Example 12, N-t-Butyloxycarbonyl-L-tryptophyl-L-3-(2-naphthyl)alanyl-D-aspartyl-L-phenylalaninamide] (Boc-W[2Nal][dD]F-NH2) | Kb (gastrin receptor [1]): 3.16 µM; Kb [2]: 0.0398 µM |
|  |  | CC(C)(C)OC(=O)N[C@@H](Cc1c[nH]c2ccccc12)C(=O)N[C@@H](Cc1ccc2ccccc2c1)C(=O)N[C@@H](CC(=O)O)C(=O)N[C@H](CO)Cc1ccccc1 [Example 9, N-t-Butyloxycarbonyl-L-tryptophyl-L-3-(2-naphthyl)alanyl-L-aspartyl-L-phenylalaninol] (Boc-W[2Nal]D[Phe(ol)]) | Kb (gastrin receptor [1]): 2.51 µM; Kb [2]: 1.26 µM |
| 5.9 | 7.1 | N-t-Butyloxycarbonyl-L-tryptophyl-L-3-(2-naphthyl)alanyl-L-aspartyl-4-hydroxyphenethylamide [Example 38] |  |
| 5.6 |  | N-t-Butyloxycarbonyl-L-tryptophyl-L-3-(2-naphthyl)alanyl-L-aspartyl]-3-azaspiro[5.4]decylamide [Example 62] |  |
|  | 6.7 | COc1ccc(CCNC(=O)[C@H](CC(=O)O)NC(=O)[C@H](Cc2ccc3ccccc3c2)N(C)C(=O)[C@H](Cc2c[nH]c3ccccc23)NC(=O)OC(C)(C)C)cc1 [Example 59, N-t-Butyloxycarbonyl-L-tryptophyl-N-methyl-L-3-(2-naphthyl)alanyl-L-aspartyl-4-methoxyphenethylamide] | pKB mouse stomach (gastrin receptor [3]; [4]): 5.3; Acid seretion at 10^-5 M test compound, relative to pentagastrin (%) (gastrin receptor [3]): 20% |
|  |  | CC(C)(C)OC(=O)N[C@@H](Cc1c[nH]c2ccccc12)C(=O)N[C@@H](Cc1cccc2ccccc12)C(=O)N[C@@H](CC(=O)O)C(=O)N[C@@H](Cc1ccccc1)C(N)=O [Example 4, N-t-Butyloxycarbonyl-L-tryptophyl-L-3-(1-naphthyl)alanyl-L-aspartyl-L-phenylalaninamide] (Boc-W[1Nal]DF-NH2) | Kb (gastrin receptor [1]): 1.58 µM |
|  | 6.4 | CC(C)(C)OC(=O)N[C@@H](Cc1cn(C=O)c2ccccc12)C(=O)N[C@@H](Cc1ccc2ccccc2c1)C(=O)N[C@@H](CC(=O)O)C(=O)N[C@@H](Cc1ccccc1)C(N)=O [Example 60, N-t-Butyloxycarbonyl-L-N^in-formyltryptophyl-L-3-(2-naphthyl)alanyl-L-aspartyl-L-phenylalaninamide] (Boc-W(For)[2Nal]DF-NH2) | pKB mouse stomach (gastrin receptor [3]; [4]): 5.3; Acid seretion at 10^-5 M test compound, relative to pentagastrin (%) (gastrin receptor [3]): 20% |
|  |  | CC(C)(C)OC(=O)N[C@@H](Cc1c[nH]c2ccccc12)C(=O)N[C@H](Cc1cccc2ccccc12)C(=O)N[C@@H](CC(=O)O)C(=O)N[C@@H](Cc1ccccc1)C(N)=O [Example 24, N-t-Butyloxycarbonyl-L-tryptophyl-D-3-(1-naphthyl)alanyl-L-aspartyl-L-phenylalaninamide] (Boc-W[d1Nal]DF-NH2) | Kb (gastrin receptor [3]; isolated mouse stomach assay, gastrin antagonism, standard errors less than 5%, read-out: pKB mouse stomach (converted)): 0.251 µM; Acid seretion at 10^-5 M test compound, relative to pentagastrin (%) (gastrin receptor [3]): 50%; Kb [2]: 0.316 µM |
|  |  | CC(C)(C)OC(=O)N[C@@H](Cc1c[nH]c2ccccc12)C(=O)N[C@H](Cc1ccc2ccccc2c1)C(=O)N[C@@H](CC(=O)O)C(=O)N[C@@H](Cc1ccccc1)C(N)=O [Example 3, N-t-Butyloxycarbonyl-L-tryptophyl-D-3-(2-naphthyl)alanyl-L-aspartyl-L-phenylalaninamide] (Boc-W[d2Nal]DF-NH2) | Kb (gastrin receptor [1]): 2.51 µM |

| Compound | pKB (gastrin receptor [1]) | pKB [2] | further results |
| --- | --- | --- | --- |
| N-t-Butyloxycarbonyl-L-tryptophyl-L-3-(2-naphthyl)alanyl-L-aspartyl-L-3-cyclohexylalaninamide [Example 36] | 5.4 | 6.3 |  |
| COc1ccc(CCNC(=O)[C@H](CCC(=O)O)NC(=O)[C@H](Cc2ccc3ccccc3c2)NC(=O)[C@H](Cc2c[nH]c3ccccc23)NC(=O)OC(C)(C)C)cc1 [Example 61, N-t-Butyloxycarbonyl-L-tryptophyl-L-3-(2-naphthyl)alanyl-L-glutamyl-4-methoxyphenethylamide] | 5.7 | 6.5 |  |
